In PMC9915011, “Polymyxin B Conjugates with Bio-Inspired Synthetic Polymers of Different Nature” (International Journal of Molecular Sciences, 2023):
Values after ≈ are worked out from the molar mass of the structure shown.

Key:
[1] = system: P. aeruginosa (ATCC 27853); assay: MIC by microdilution in Müller–Hinton broth; type: cell-based, Pseudomonas aeruginosa; settings: 18 h, OD 630 nm, n = 9
Excerpt: P. aeruginosa (ATCC 27853) from Museum of Microbiological Cultures of State Research Institute of Highly Pure Biopreparations FMBA (St. Petersburg, Russia) and Müller–Hinton Broth (HiMedia, Mumbai, India) were used to study the antibacterial effect of PMX B and its conjugates. HEK 293T cells were purchased from the cell culture collection of the Institute of Cytology of Russian Academy of Sciences (St. Petersburg, Russia).
The minimum inhibitory concentration (MIC) of polymyxin B in the conjugates was determined by the microdilution method in Müller–Hinton broth. Before the samples were tested against P. Aeruginosa, they were checked for microbiological purity to exclude possible contamination. In all cases, the absence of microbial growth on Luria–Bertani agar was detected. […] The plate was incubated for 18 h at 37 °C and then the optical density in the wells was measured at 630 nm using a microplate reader (ELx808™ Absorbance Microplate Reader, BioTek-Agilent, Santa Clara, CA, USA). Relative bacterial growth (%) was calculated from the data of OD measured for samples and control according to the equation: (2) Relative bactearial growth=OD630 sample at Cx−OD630 blank/OD630 positive control−OD630 blank×100% where Cx is a certain concentration of the sample. […]

HEK 293T cells = assay: MTT cytotoxicity in HEK 293T cells, 48 h; type: cell-based, human; settings: free polymers and free PMX B, tested 4 to 1000 µg/mL, mean ± SD, n = 4
Protocol: The cell viability was determined after 48 h using the MTT assay (Figure 6).
HEK 293T cells were cultivated in DMEM/F12 medium with 10% FCS, 2 mM glutamine, and 1% gentamicin (Sigma-Aldrich, Darmstadt, Germany). In 96-well plates, 3.5 × 10^3 cells in 100 µL were seeded per well and left for adhesion at 37 °C for 24 in a humidified 5% CO2 atmosphere. After that, the medium in the wells was replaced with 200 µL of solution containing the test samples at the specified concentrations (n = 4) and left for incubation under the same conditions for 48 h. Then, the medium was removed and 100 µL of MTT reagent solution (5 mg/mL stock solution) was added to each well. The plates were incubated in the CO2 incubator for 3 h at 37 °C. Finally, the solution in the well was replaced with 50 µL of DMSO to dissolve formazan crystals and the optical density in each well was measured at 570 nm using fluorescent plate reader (Fluoroscan Ascent, Thermo Fisher Scientific Inc., Waltham, MA, USA). The wavelength of 690 nm was used to measure the background absorbance. The data obtained were normalized as a percentage of the control. Free polymers and PMX B were tested at concentrations ranging from 4 to 1000 µg/mL.

S. aureus = settings: cited from earlier work
Excerpt: A series of conjugates of loracarbef (cephalosporins) and ciprofloxacin (fluroquinolones) with sideromycins (siderophores) was synthesized and tested against a panel of ESKAPEE bacteria (Enterococcus faecium, S. aureus, Klebsiella pneumoniae, A. baumannii, P. aeruginosa, Enterobacter aerogenes, E. coli).

[2] = system: Acinetobacter baumannii (Ab ATCC 19606); settings: cited from earlier work
P. aeruginosa = settings: free colistin; cited from earlier work
Protocol: According to the published works, many factors affect the MIC for conjugates linked with amide bonds. For example, Dubashynskaya et al. observed the dependence of MIC on the degree of substitution (DS). In particular, when the DS was 8%, the MIC against P. aeruginosa for hyaluronan–colistin conjugates was 1 µg/mL, the same as for free colistin. At the same time, a decrease in DS to 5 and 3% was accompanied with the MIC increase to 4 and more than 8 µg/mL, respectively.

polymyxin B [PMX B]
MIC ([1]; P. aeruginosa ATCC 27853, microdilution, Müller–Hinton broth, 1 × 10^7 CFU/mL, 37 °C, MIC of polymyxin B in the conjugates): 4 µg/mL
IC50 (HEK 293T cells): 130 ± 14 µg/mL

N[C@@H](C(=O)N[C@@H]1C(=O)N2C(C(=O)O)=C(Cl)CC[C@H]12)c1ccccc1 [loracarbef]
MIC (S. aureus): 1 µM (≈ 0.35 µg/mL)

CC(=O)N(O)CCCCCNC(=O)CCC(=O)N(O)CCCCCNC(=O)CCC(=O)N(O)CCCCCN [DFOA, deferoxamine]
antimicrobial activity ([1]; P. aeruginosa, concentration range of 0.25–64 μg/mL): neither polymers nor DFOA exhibited antimicrobial activity

colistin
MIC [2]: 1 µg/mL
MIC (P. aeruginosa): 1 µg/mL
